# Measurements: US20230145835A1, “Modulators of Alpha-4-beta-7 Integrin and MAdCAM” (48HD Biopharma Inc., priority 2021, published 2023)
# pIC50: −log10 of the molar value. Numbered stars: 1 amine (or outer) side, 2 acyl side, 3 side chain; on linkers, the order of the positions; unused ones are H or OH. Bridge positions count the residues as written; N and C are the ends. Square brackets hold non-standard residues; d marks the D form. Peptide text beside a SMILES is read from it. X3 = O=C(/C=N/OCCCCCCOc1cc(C[*:2])cc(C[*:3])c1)[*:1]; X1 = O=C(C=NOCCCCCCOc1cc(C[*:2])cc(C[*:3])c1)[*:1]; X5 = O=C(CCCCCCOc1cc(C[*:2])cc(C[*:3])c1)[*:1]; Nle = CCCC[C@H](N)C(=O)O
# Target: T1, rh-integrin α4β7/LPAM-1 (Homo sapiens, UniProt P13612+P26010)
# T1 sequence (P13612 34-977 limits assumed): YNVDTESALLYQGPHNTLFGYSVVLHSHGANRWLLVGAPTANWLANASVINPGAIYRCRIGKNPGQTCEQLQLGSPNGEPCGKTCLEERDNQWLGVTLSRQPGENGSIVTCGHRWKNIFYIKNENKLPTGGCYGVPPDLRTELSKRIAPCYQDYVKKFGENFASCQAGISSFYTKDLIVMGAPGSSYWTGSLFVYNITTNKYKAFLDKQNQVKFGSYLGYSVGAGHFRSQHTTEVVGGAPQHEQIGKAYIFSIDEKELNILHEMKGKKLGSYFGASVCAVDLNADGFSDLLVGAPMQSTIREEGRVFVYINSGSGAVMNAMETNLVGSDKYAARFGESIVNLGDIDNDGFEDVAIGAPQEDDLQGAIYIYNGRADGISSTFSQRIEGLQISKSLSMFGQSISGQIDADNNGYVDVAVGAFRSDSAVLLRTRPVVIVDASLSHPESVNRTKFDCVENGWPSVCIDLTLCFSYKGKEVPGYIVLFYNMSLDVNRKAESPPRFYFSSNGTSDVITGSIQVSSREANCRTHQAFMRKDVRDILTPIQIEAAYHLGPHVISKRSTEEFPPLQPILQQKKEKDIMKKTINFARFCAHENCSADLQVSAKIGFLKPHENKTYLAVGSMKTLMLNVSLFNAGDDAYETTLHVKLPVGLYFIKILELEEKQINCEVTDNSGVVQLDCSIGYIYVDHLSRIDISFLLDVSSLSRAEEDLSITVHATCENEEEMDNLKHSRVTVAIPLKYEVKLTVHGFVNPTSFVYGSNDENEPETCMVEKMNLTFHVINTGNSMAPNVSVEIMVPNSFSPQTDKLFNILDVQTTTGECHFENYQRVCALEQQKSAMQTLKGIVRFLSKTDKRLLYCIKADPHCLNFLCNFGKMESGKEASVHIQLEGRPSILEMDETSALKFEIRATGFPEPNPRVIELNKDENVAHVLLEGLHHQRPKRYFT
# T1 sequence (P26010 20-723 limits assumed): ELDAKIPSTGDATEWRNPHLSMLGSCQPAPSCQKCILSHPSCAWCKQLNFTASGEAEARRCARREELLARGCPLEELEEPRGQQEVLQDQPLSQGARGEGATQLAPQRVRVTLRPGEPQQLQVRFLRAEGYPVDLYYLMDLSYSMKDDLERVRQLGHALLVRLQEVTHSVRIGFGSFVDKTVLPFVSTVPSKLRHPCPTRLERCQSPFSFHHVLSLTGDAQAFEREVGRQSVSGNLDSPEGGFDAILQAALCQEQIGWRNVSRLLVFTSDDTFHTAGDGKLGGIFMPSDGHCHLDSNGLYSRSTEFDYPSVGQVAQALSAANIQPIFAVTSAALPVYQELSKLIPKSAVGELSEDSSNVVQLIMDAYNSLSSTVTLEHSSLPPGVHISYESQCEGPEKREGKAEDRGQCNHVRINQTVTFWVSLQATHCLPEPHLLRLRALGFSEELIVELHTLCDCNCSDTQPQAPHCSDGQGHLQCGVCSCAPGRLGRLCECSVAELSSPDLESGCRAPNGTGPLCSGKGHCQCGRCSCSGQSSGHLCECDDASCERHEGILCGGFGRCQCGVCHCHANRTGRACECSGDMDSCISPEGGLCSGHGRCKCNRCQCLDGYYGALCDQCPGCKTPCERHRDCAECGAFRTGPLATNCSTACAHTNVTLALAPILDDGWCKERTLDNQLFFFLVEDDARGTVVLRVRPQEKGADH
# Assay: α4β7-MadCAM Competition ELISA (Example 4)
# Assay type: binding
# Details: IC50, competition ELISA, 4 μg/mL α4β7 coated, MAdCAM and peptide mixture, 28° C.
# Experimental: After washing with wash buffer, 200 μL assay buffer was added to each well and incubated for one hour at 28° C. After another wash with wash buffer, 100 μL of a MAdCAM and peptide mixture in assay buffer was added to each well and incubated for one hour at 28° C., followed by washing with wash buffer.
row,Structure (SMILES),pIC50
1,C[C@@H](O)[C@@H]1NC(=O)[C@H](CCCCN)NC(=O)[C@H](CO)NC(=O)[C@H](CCC(N)=O)NC(=O)[C@H](Cc2c[nH]c3ccccc23)NC(=O)[C@@H]2CCCN2C(=O)[C@@H]2CSCc3cc(cc(c3)OCCCCCCON=CC(=O)N[C@@H](CC(=O)O)C(=O)N2)CSC[C@@H](C(=O)O)NC1=O [SEQ ID NO: 95] (DCPWQSKTC-OH; linker N-2-9 via X1),4.75

# Same assay, conditions: Table 3 Representative compounds; inhibition of MAdCAM binding to coated α4β7; read-out: IC50
row,Structure (SMILES),pIC50
1,CCCC[C@@H]1NC(=O)[C@H](CO)NC(=O)[C@H](CCCNC(=N)N)NC(=O)[C@@H]2CSCC(=O)N[C@@H](CCCNC(=N)N)C(=O)N[C@@H](CSSC[C@@H](C(=O)N[C@@H](Cc3c[nH]c4ccccc34)C(=O)N[C@@H](CCC(N)=O)C(N)=O)NC(=O)[C@H](CC(C)C)NC(=O)[C@@H](CC(=O)O)NC1=O)C(=O)N[C@@H](CO)C(=O)N[C@@H](CC(=O)O)C(=O)N[C@@H]([C@@H](C)O)C(=O)N[C@@H](CC(C)C)C(=O)N2 [compound 68] ({CH2CO}-RCSDTLCRS[Nle][dD]LCWQ-NH2; disulfide 2-13; thioether N-7),4.80
2,CCCC[C@@H]1NC(=O)[C@@H]2CCCN2C(=O)[C@@H]2CSCc3cc(cc(c3)OCCCCCCO/N=C/C(=O)N[C@@H](CCCNC(=N)N)C(=O)N2)CSC[C@@H](C(N)=O)NC(=O)[C@H](CCC(=O)O)NC(=O)[C@H](CCC(N)=O)NC(=O)[C@H](Cc2c[nH]c3ccccc23)NC(=O)[C@H]([C@@H](C)CC)NC(=O)[C@H](CC(=O)O)NC1=O [compound 9] (RCP[Nle]DIWQEC-NH2; linker N-2-10 via X3),6.73
3,"CC[C@H](C)[C@@H]1NC(=O)[C@H](CC(=O)O)NC(=O)[C@H](C)NC(=O)[C@@H]2CCCN2C(=O)[C@@H]2CSCc3cc(cc(c3)OCCCCCCO/N=C/C(=O)N[C@@H](CCC(N)=O)C(=O)N2)CSC[C@@H](C(N)=O)NC(=O)[C@H]([C@@H](C)O)NC(=O)[C@@H]2CCCN2C1=O [compound 78, TSL6- SQCPADIPTC] (QCPADIPTC-NH2; linker N-2-9 via X3)",4.36
4,CC[C@H](C)[C@@H]1NC(=O)[C@H](CC(=O)O)NC(=O)[C@H](CCSC)NC(=O)[C@@H]2CCCN2C(=O)[C@@H]2CSCc3cc(cc(c3)OCCCCCCO/N=C/C(=O)N[C@@H](CCCNC(=N)N)C(=O)N2)CSC[C@@H](C(N)=O)NC(=O)[C@H]([C@@H](C)O)NC(=O)[C@@H]2CCCN2C1=O [compound 20] (RCPMDIPTC-NH2; linker N-2-9 via X3),6.39
5,"CC[C@H](C)[C@@H]1NC(=O)[C@H](C(C)C)NC(=O)[C@H](CC(=O)O)NC(=O)[C@H](CC(C)C)NC(=O)[C@H](CCSC)NC(=O)[C@@H]2CSCc3cc(cc(c3)OCCCCCCO/N=C/C(=O)N[C@@H](C)C(=O)N2)CSC[C@@H](C(N)=O)NC(=O)[C@H](CO)NC1=O [compound 85, TSL6- SACMLDVISC] (ACMLDVISC-NH2; linker N-2-9 via X3)",4.18
6,CC(=O)N[C@H]1CSSC[C@@H](C(=O)NCC(=O)N[C@@H](CCC(=O)O)C(N)=O)NC(=O)[C@H](CC(C)C)NC(=O)[C@H]([C@@H](C)O)NC(=O)[C@H](CC(=O)O)NC(=O)[C@H](CO)NC(=O)[C@H](CCCNC(=N)N)NC1=O [compound 7] (Ac-CRSDTLCGE-NH2; disulfide 1-7),6.87
7,"CC[C@H](C)[C@@H]1NC(=O)[C@H](C)NC(=O)[C@H](CCSC)NC(=O)[C@@H]2CCCN2C(=O)[C@@H]2CSCc3cc(cc(c3)OCCCCCCO/N=C/C(=O)N[C@@H](CCC(N)=O)C(=O)N2)CSC[C@@H](C(N)=O)NC(=O)[C@H]([C@@H](C)O)NC(=O)[C@@H]2CCCN2C1=O [compound 110, TSL6- SQCPMAIPTC] (QCPMAIPTC-NH2; linker N-2-9 via X3)",< 3.30
8,"CC(C)C[C@@H]1NC(=O)/C=N/OCCCCCCOc2cc3cc(c2)CSC[C@H](NC1=O)C(=O)N[C@@H](Cc1ccc(O)cc1)C(=O)N[C@@H](CCC(=O)O)C(=O)N[C@@H](Cc1c[nH]c2ccccc12)C(=O)N[C@H](CCC(=O)O)C(=O)N[C@@H](Cc1cnc[nH]1)C(=O)N[C@@H](C)C(=O)N[C@H](C(N)=O)CSC3 [compound 63, TSL6- SLCYEWEHAC] (LCYEW[dE]HAC-NH2; linker N-2-9 via X3)",5.10
9,"CC[C@H](C)[C@@H]1NC(=O)[C@H](CC(=O)O)NC(=O)[C@H](CCSC)NC(=O)[C@@H]2CCCN2C(=O)[C@@H]2CSCc3cc(cc(c3)OCCCCCCO/N=C/C(=O)N[C@@H](CCC(N)=O)C(=O)N2)CSC[C@@H](C(N)=O)NC(=O)[C@H](C)NC(=O)[C@@H]2CCCN2C1=O [compound 46, TSL6- SQCPMDIPAC] (QCPMDIPAC-NH2; linker N-2-9 via X3)",5.78
10,"CC(C)C[C@@H]1NC(=O)CNC(=O)[C@H](Cc2ccc(O)cc2)NC(=O)[C@H](CC(=O)O)NC(=O)[C@H](CO)NC(=O)[C@@H]2CSCc3cc(cc(c3)OCCCCCCO/N=C/C(=O)N[C@@H](C)C(=O)N2)CSC[C@@H](C(N)=O)NC(=O)[C@H](CCC(N)=O)NC1=O [compound 86, TSL6- SACSDTGLQC] (ACSDYGLQC-NH2; linker N-2-9 via X3)",4.15
11,CC[C@H](C)[C@@H]1NC(=O)[C@H](CC(=O)O)NC(=O)[C@H](CCSC)NC(=O)[C@@H]2CCCN2C(=O)C(NC(=O)[C@H](CCCNC(=N)N)NC(=O)[C@H](CO)NC(C)=O)CSSC[C@@H](C(=O)N[C@@H](CCCCNC(=O)COCC(=O)NCCCC[C@H](NC(=O)[C@@H]2CSSC[C@H](NC(=O)[C@H](CCCNC(=N)N)NC(=O)[C@H](CO)NC(C)=O)C(=O)N3CCC[C@H]3C(=O)N[C@@H](CCSC)C(=O)N[C@@H](CC(=O)O)C(=O)N[C@@H]([C@@H](C)CC)C(=O)N[C@@H](C)C(=O)NCC(=O)N[C@@H](CCC(=O)O)C(=O)N2)C(N)=O)C(N)=O)NC(=O)[C@H](CCC(=O)O)NC(=O)CNC(=O)[C@H](C)NC1=O (stereo in doubt) [compound 32],6.14
12,"CSCC[C@@H]1NC(=O)[C@@H]2CSCc3cc(cc(c3)OCCCCCCO/N=C/C(=O)NCC(=O)N2)CSC[C@@H](C(N)=O)NC(=O)[C@H](Cc2ccccc2)NC(=O)[C@H](C)NC(=O)[C@H](Cc2ccccc2)NC(=O)[C@H](CC(=O)O)NC(=O)[C@H](CC(=O)O)NC1=O [compound 82, TSL6- SGCMDDFAFC] (GCMDDFAFC-NH2; linker N-2-9 via X3)",4.23
13,"CC(C)C[C@@H]1NC(=O)[C@@H]2CCCN2C(=O)[C@@H]2CSCc3cc(cc(c3)OCCCCCCO/N=C/C(=O)N[C@@H](CCCCN)C(=O)N2)CSC[C@@H](C(N)=O)NC(=O)[C@H](CO)NC(=O)[C@@H]2CCCN2C(=O)[C@H](C(C)C)NC(=O)[C@H](CC(=O)O)NC1=O [compound 31, TSL6- SKCPLDVPSC] (KCPLDVPSC-NH2; linker N-2-9 via X3)",6.14

# Same assay, conditions: competition ELISA, 4 μg/mL α4β7 coated, MAdCAM and peptide mixture, 28° C.; read-out: IC50
row,Structure (SMILES),pIC50
1,CCCC[C@@H]1NC(=O)[C@@H]2CCCN2C(=O)[C@@H]2CSCc3cc(cc(c3)OCCCCCCC(=O)NCC(=O)N[C@@H](CCCNC(=N)N)C(=O)N2)CSC[C@@H](C(=O)O)NC(=O)[C@H](CCC(=O)O)NC(=O)[C@H](CCC(N)=O)NC(=O)[C@H](Cc2c[nH]c3ccccc23)NC(=O)[C@H]([C@@H](C)CC)NC(=O)[C@H](CC(=O)O)NC1=O [SEQ ID NO: 147] (GRCP[Nle]DIWQEC-OH; linker N-3-11 via X5; C-terminus assumed),7.12
2,C[C@@H]1NC(=O)[C@@H]2CCCN2C(=O)[C@@H]2CSCc3cc(cc(c3)OCCCCCCON=CC(=O)N[C@@H](CCCCN)C(=O)N2)CSC[C@@H](C(=O)O)NC(=O)[C@H](CCC(=O)O)NC(=O)[C@H](Cc2ccc(O)cc2)NC(=O)[C@@H]2CCCN2C(=O)[C@H]([C@@H](C)O)NC(=O)[C@H](CC(=O)O)NC1=O [SEQ ID NO: 71] (KCPADTPYEC-OH; linker N-2-10 via X1),< 3.30
